This passage reports IC50 results from patent US4572908A, “Dihydropyridines” (Pfizer Inc., priority 1982, dated 1986).

This assay relates to rat aorta. Nature of the assay: inhibition of calcium-induced contraction (change in tension) of spirally cut strips of rat aorta in K+ 45 mM saline. The assay is classed as cell-based. The settings on record: 0.75 h, 45 millimolar potassium, 2 millimolar calcium, 45 minutes, read-out: IC50 (molar concentration required to reduce the response by 50%). The method, then:
The ability of the compounds to inhibit the movement of calcium into the cell is shown by their effectiveness in reducing the response of isolated heart tissue to an increase in calcium ion concentration in vitro. The test is performed by mounting spirally cut strips of rat aorta with one end fixed and the other attached to a force transducer. The tissue is immersed in a bath of physiological saline solution containing potassium ions at a concentration of 45 millimolar and no calcium. Calcium chloride is added to the bath with a pipette to give a final calcium ion concentration of 2 millimolar. The change in tension caused by the resulting contraction of the tissue is noted. The bath is drained and replaced with fresh saline solution and, after 45 minutes, the test is repeated with the particular compound under test present in the saline solution. The concentration of compound required to reduce the response by 50% (IC50) is recorded.
The molar concentrations of the compounds required to reduce the response by 50% in the test specified on pages 16-17 are given below (1M=1 gm.Mole/liter).

Turning to `CCOC(=O)C1=C(COCCNc2nc(N)n[nH]2)NC(C)=C(C(=O)OC)C1c1ccccc1Cl` (stereo not shown) [Example 1B, 2-[2-(3-Amino-1H-1,2,4-triazol-5-ylamino)ethoxymethyl]-4-(2-chlorophenyl)-3-ethoxycarbonyl-5-methoxycarbonyl-6-methyl-1,4-dihydropyridine], the IC50 was 20 nM.

On to `CCOC(=O)C1=C(COCCNc2nc(N)n[nH]2)NC(C)=C(C(=O)OC)C1c1cccc(C(F)(F)F)c1Cl` (stereo not shown) [Example 2, 2-[2-(3-Amino-1H-1,2,4-triazol-5-ylamino)ethoxymethyl]-4-(2-chloro-3-trifluoromethylphenyl)-3-ethoxycarbonyl-5-methoxycarbonyl-6-methyl-1,4-dihydropyridine], for which the IC50 stood at 2.29 nM.

As for `CCOC(=O)C1=C(COCCNc2nnc(N)[nH]2)NC(C)=C(C(=O)OC)C1c1cccc(Cl)c1Cl` (stereo not shown) [Example 3B], the IC50 is 6.02 nM.

For the compound `CCOC(=O)C1=C(COCCNc2nc(N)n(C)n2)NC(C)=C(C(=O)OC)C1c1ccccc1Cl` (stereo not shown) [Example 4], the IC50 was found to be 8.12 nM.

Consider `CCOC(=O)C1=C(COCCNc2nc(N)n(C)n2)NC(C)=C(C(=O)OC)C1c1cccc(Cl)c1Cl` (stereo not shown) [Example 5], for which the IC50 stood at 3.02 nM.

In the case of `CCOC(=O)C1=C(COCCNc2noc(N)n2)NC(C)=C(C(=O)OC)C1c1ccccc1Cl` (stereo not shown) [Example 6, 2-[2-(5-Amino-1,2,4-oxadiazol-3-ylamino)ethoxymethyl]-4-(2-chlorophenyl)-3-ethoxycarbonyl-5-methoxycarbonyl-6-methyl-1,4-dihydropyridine], the IC50 came out at 11.5 nM.

Turning to `CCOC(=O)C1=C(COCCNc2noc(N)n2)NC(C)=C(C(=O)OC)C1c1cccc(C(F)(F)F)c1Cl` (stereo not shown) [Example 7], the IC50 came out at 3.47 nM.

As for `CCOC(=O)C1=C(COCCNc2nccc(=O)[nH]2)NC(C)=C(C(=O)OC)C1c1ccccc1Cl` (stereo not shown) [Example 8, 4-(2-Chlorophenyl)-3-ethoxycarbonyl-5-methoxycarbonyl-6-methyl-2-[2-(3,4-dihydro-4-oxo-pyrimidin-2-ylamino)ethoxymethyl]-1,4-dihydropyridine], the IC50 came to 10.5 nM.

With `CCOC(=O)C1=C(COCCNC2=NCC(=O)N2)NC(C)=C(C(=O)OC)C1c1ccccc1Cl` (stereo not shown) [Example 9], the IC50 came to 12.6 nM.

As to `CCOC(=O)C1=C(COCCNc2ccncn2)NC(C)=C(C(=O)OC)C1c1ccccc1Cl` (stereo not shown) [Example 10], the IC50 stood at 1.9 nM.

`CCOC(=O)C1=C(COCCNc2nc(N)nc(N)n2)NC(C)=C(C(=O)OC)C1c1ccccc1Cl` (stereo not shown) [Example 11]: the IC50 was found to be 426 nM.

For `CCOC(=O)C1=C(COCCNc2cc[nH]c(=O)n2)NC(C)=C(C(=O)OC)C1c1ccccc1Cl` (stereo not shown) [Example 12], the IC50 is 28.8 nM.

Take `CCOC(=O)C1=C(COCCNc2ccnc(N)n2)NC(C)=C(C(=O)OC)C1c1ccccc1Cl` (stereo not shown) [Example 13]: the IC50 came to 6.3 nM.

As to `CCOC(=O)C1=C(COCCNc2cc(=O)[nH]cn2)NC(C)=C(C(=O)OC)C1c1ccccc1Cl` (stereo not shown) [Example 14], the IC50 was found to be 10 nM.

Take `CCOC(=O)C1=C(COCCNc2cc(=O)n(C)c(=O)n2C)NC(C)=C(C(=O)OC)C1c1ccccc1Cl` (stereo not shown) [Example 15]: the IC50 is 50.1 nM.

Turning to `CCOC(=O)C1=C(COCCNc2ncnc3[nH]cnc23)NC(C)=C(C(=O)OC)C1c1ccccc1Cl` (stereo not shown) [Example 16], the IC50 came to 100 nM.

With `CCOC(=O)C1=C(COCCNc2nc3cc(OC)c(OC)cc3c(=O)[nH]2)NC(C)=C(C(=O)OC)C1c1ccccc1Cl` (stereo not shown) [Example 17], the IC50 is 13.1 nM.

For the compound `CCOC(=O)C1=C(COCCNc2ccnc(Cl)n2)NC(C)=C(C(=O)OC)C1c1ccccc1Cl` (stereo not shown) [Example 18], the IC50 worked out at 31.6 nM.

Turning to `CCOC(=O)C1=C(COCCNc2nc3ccccc3s2)NC(C)=C(C(=O)OC)C1c1ccccc1Cl` (stereo not shown) [Example 19], the IC50 stood at 10 nM.

With `CCOC(=O)C1=C(COCCNC2=NCCC2)NC(C)=C(C(=O)OC)C1c1ccccc1Cl` (stereo not shown) [Example 20], the IC50 turned out to be 100 nM.

`CCOC(=O)C1=C(COCCNC2=NCCN2)NC(C)=C(C(=O)OC)C1c1ccccc1Cl` (stereo not shown) [Example 21]: the IC50 is 100 nM.

On to `CCOC(=O)C1=C(COCCNc2ccc(C(N)=O)cn2)NC(C)=C(C(=O)OC)C1c1ccccc1Cl` (stereo not shown) [Example 22], for which the IC50 is 18.2 nM.

`CCOC(=O)C1=C(COCCNC2=NC(C)(C)C(=O)N2)NC(C)=C(C(=O)OC)C1c1ccccc1Cl` (stereo not shown) [Example 23]: the IC50 was 100 nM.

On to `CCOC(=O)C1=C(COCCNc2nc(C)cc(=O)[nH]2)NC(C)=C(C(=O)OC)C1c1ccccc1Cl` (stereo not shown) [Example 24], for which the IC50 stood at 10 nM.

Consider `CCOC(=O)C1=C(COCCNc2ncccc2C(N)=O)NC(C)=C(C(=O)OC)C1c1ccccc1Cl` (stereo not shown) [Example 25], for which the IC50 worked out at 45.7 nM.

Consider `CCOC(=O)C1=C(COCCNc2ncc(S(=O)(=O)N(C)C)s2)NC(C)=C(C(=O)OC)C1c1ccccc1Cl` (stereo not shown) [Example 26], for which the IC50 came to 3.71 nM.

Consider `CCOC(=O)C1=C(COCCNc2nccc(N)n2)NC(C)=C(C(=O)OC)C1c1ccccc1Cl` (stereo not shown) [Example 27], for which the IC50 worked out at 3.98 nM.

On to `CCOC(=O)C1=C(COCCNc2nccc(C#N)n2)NC(C)=C(C(=O)OC)C1c1ccccc1Cl` (stereo not shown) [Example 28], for which the IC50 was found to be 13.1 nM.

With `CCOC(=O)C1=C(COCCNc2nccc(C(N)=O)n2)NC(C)=C(C(=O)OC)C1c1ccccc1Cl` (stereo not shown) [Example 29], the IC50 turned out to be 18.1 nM.

On to `CCOC(=O)C1=C(COCCNc2cc(=O)n(C)cn2)NC(C)=C(C(=O)OC)C1c1ccccc1Cl` (stereo not shown) [Example 30], for which the IC50 was determined as 2.34 nM.

Take `CCOC(=O)C1=C(COCCNc2cc(Cl)ncn2)NC(C)=C(C(=O)OC)C1c1ccccc1Cl` (stereo not shown) [Example 31]: the IC50 amounted to 17.7 nM.

In the case of `CCOC(=O)C1=C(COCCNc2nccnc2Cl)NC(C)=C(C(=O)OC)C1c1ccccc1Cl` (stereo not shown) [Example 32], the IC50 came to 15.8 nM.

As for `CCOC(=O)C1=C(COCCNc2cncc(Cl)n2)NC(C)=C(C(=O)OC)C1c1ccccc1Cl` (stereo not shown) [Example 33], the IC50 was 6.3 nM.

As to `CCOC(=O)C1=C(COCCNc2nc(N)c3cc(OC)c(OC)cc3n2)NC(C)=C(C(=O)OC)C1c1ccccc1Cl` (stereo not shown) [Example 34], the IC50 was found to be 13.1 nM.

In the case of `CCOC(=O)C1=C(COCCNc2ccc(S(N)(=O)=O)cn2)NC(C)=C(C(=O)OC)C1c1ccccc1Cl` (stereo not shown) [Example 35], the IC50 came out at 5.75 nM.

For the compound `CCOC(=O)C1=C(COCCNc2ccc(S(=O)(=O)N3CCN(C=O)CC3)cn2)NC(C)=C(C(=O)OC)C1c1ccccc1Cl` (stereo not shown) [Example 36], the IC50 is 3.16 nM.

`CCOC(=O)C1=C(COCCNC2=NCC(=O)N2)NC(C)=C(C(=O)OC)C1c1cccc(Cl)c1Cl` (stereo not shown) [Example 37]: the IC50 came out at 10 nM.

As to `CCOC(=O)C1=C(COCCNC2=NC(C)(C)C(=O)N2)NC(C)=C(C(=O)OC)C1c1cccc(Cl)c1Cl` (stereo not shown) [Example 38], the IC50 is 25.1 nM.

Regarding `CCOC(=O)C1=C(COCCNc2nccc(=O)[nH]2)NC(C)=C(C(=O)OC)C1c1cccc(Cl)c1Cl` (stereo not shown) [Example 39], the IC50 is 2.69 nM.

Turning to `CCOC(=O)C1=C(COCCNc2ccnc(N)n2)NC(C)=C(C(=O)OC)C1c1cccc(Cl)c1Cl` (stereo not shown) [Example 40], the IC50 came to 2.23 nM.

For the compound `CCOC(=O)C1=C(COCCNc2cc(=O)[nH]cn2)NC(C)=C(C(=O)OC)C1c1cccc(Cl)c1Cl` (stereo not shown) [Example 41], the IC50 turned out to be 0.776 nM.

On to `CCOC(=O)C1=C(COCCNc2nc(C)cc(=O)[nH]2)NC(C)=C(C(=O)OC)C1c1cccc(Cl)c1Cl` (stereo not shown) [Example 42], for which the IC50 is 4.16 nM.

For `CCOC(=O)C1=C(COCCNc2nc(-c3ccccc3)cc(=O)[nH]2)NC(C)=C(C(=O)OC)C1c1cccc(Cl)c1Cl` (stereo not shown) [Example 43], the IC50 was determined as 8.31 nM.
